Experiment [1] has as its target T1, Angiotensin-converting enzyme (Homo sapiens, UniProt P12821). Nature of the experiment: Inhibition of human glycosylated C-terminal catalytic ACE domain using Cbz-Phe-His-Leu substrate by fluorogenic end point activity assay.
The target in experiment [2] is T1, Angiotensin-converting enzyme. Nature of the experiment: Inhibition of human glycosylated N-terminal catalytic ACE domain using Cbz-Phe-His-Leu substrate by fluorogenic end point activity assay.
A further experiment is filed under the species Homo sapiens. The experiment can be described thus: Selectivity factor, ratio of IC50 for human glycosylated nACE to IC50 for human glycosylated cACE.
The next experiment addresses Neprilysin (Homo sapiens, UniProt P08473). Nature of the experiment: Inhibition of human NEP ectodomain using MCA-RPPGFSAFK-(Dnp)-OH peptide as substrate by continuous activity assay.

These results are taken from ChEMBL document CHEMBL6115051, “Design of Novel Mercapto-3-phenylpropanoyl Dipeptides as Dual Angiotensin-Converting Enzyme C-Domain-Selective/Neprilysin Inhibitors” (J Med Chem, 2025).

T1 sequence (P12821 whole entry, the tested form may be a part): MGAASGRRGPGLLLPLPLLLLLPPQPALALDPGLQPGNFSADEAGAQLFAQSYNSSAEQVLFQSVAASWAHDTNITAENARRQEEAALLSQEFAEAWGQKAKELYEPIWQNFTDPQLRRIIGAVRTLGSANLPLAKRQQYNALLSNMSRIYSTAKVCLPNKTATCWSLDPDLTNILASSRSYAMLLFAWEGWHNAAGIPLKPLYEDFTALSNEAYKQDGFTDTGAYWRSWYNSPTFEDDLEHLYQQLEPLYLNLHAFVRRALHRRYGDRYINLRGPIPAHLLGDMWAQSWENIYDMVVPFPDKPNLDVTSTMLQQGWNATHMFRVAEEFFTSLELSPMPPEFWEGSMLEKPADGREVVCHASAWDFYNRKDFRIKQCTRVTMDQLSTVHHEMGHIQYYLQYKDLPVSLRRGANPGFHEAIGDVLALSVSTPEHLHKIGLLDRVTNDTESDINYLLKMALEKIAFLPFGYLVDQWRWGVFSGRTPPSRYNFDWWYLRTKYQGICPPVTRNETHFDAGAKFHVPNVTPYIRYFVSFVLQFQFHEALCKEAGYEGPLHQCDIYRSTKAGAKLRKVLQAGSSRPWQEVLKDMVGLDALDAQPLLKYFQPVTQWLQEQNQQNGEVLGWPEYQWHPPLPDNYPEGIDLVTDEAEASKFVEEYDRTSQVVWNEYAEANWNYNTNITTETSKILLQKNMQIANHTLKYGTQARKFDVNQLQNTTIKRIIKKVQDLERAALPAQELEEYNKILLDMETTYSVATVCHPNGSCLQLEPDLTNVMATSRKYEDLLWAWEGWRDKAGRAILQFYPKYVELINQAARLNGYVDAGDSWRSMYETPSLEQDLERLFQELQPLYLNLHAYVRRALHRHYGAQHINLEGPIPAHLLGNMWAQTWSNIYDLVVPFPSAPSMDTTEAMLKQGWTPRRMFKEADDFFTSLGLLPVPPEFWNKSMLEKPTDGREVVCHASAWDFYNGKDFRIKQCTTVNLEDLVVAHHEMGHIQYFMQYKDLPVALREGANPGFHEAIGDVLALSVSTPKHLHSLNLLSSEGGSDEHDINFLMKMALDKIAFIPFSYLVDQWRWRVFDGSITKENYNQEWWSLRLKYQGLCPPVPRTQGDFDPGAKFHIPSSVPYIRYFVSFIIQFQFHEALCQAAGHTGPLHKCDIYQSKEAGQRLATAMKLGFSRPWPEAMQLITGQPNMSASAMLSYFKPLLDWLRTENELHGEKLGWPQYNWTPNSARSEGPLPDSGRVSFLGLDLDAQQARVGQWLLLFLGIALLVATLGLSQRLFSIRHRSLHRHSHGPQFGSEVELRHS
Sequence of Neprilysin (P08473 whole entry, the tested form may be a part): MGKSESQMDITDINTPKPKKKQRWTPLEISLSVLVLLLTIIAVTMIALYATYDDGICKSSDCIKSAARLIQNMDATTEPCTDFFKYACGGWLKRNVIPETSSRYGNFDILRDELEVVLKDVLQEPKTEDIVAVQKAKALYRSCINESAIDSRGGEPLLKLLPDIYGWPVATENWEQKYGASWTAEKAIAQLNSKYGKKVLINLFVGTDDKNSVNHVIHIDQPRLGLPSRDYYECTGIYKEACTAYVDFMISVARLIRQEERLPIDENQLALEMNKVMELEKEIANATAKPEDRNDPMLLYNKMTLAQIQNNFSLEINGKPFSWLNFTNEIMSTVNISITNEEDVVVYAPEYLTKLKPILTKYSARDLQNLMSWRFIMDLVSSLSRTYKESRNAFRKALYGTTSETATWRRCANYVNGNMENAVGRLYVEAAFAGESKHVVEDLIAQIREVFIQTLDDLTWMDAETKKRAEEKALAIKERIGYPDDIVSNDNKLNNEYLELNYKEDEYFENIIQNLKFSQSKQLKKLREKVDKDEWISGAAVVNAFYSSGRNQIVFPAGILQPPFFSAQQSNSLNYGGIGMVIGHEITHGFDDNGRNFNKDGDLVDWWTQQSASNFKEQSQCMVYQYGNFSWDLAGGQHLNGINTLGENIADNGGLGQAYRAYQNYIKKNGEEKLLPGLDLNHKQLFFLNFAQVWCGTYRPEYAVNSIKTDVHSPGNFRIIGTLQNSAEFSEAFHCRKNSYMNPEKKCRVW

By IC50 is commonly meant the concentration that inhibits the measured activity by half. Read a high IC50 as weaker potency. In turn, `NCCCC[C@H](NC(=O)[C@@H](S)Cc1ccccc1)C(=O)N[C@@H](Cc1c[nH]c2ccccc12)C(=O)O` yielded an IC50 in experiment [1] of 0.007 µM.
Turning to `Cc1ccc([C@H]2CC[C@@H](C(=O)O)N2C(=O)CN[C@@H](CCc2ccccc2)C(=O)O)cc1`, the IC50 in experiment [2] is 6 µM; against Neprilysin, greater than 100 µM; in experiment [1], 4.1 µM. Besides, the Ratio IC50 in the experiment listed under Homo sapiens was found to be 1.5.
`O=C(NCC(=O)N1[C@@H](c2cccc(O)c2)CC[C@H]1C(=O)O)[C@@H](S)Cc1ccc(O)cc1` showed an IC50 in experiment [1] of 0.009 µM. That is a single-digit nanomolar value.
As to `NCCCC[C@H](N[C@@H](CCc1ccccc1)C(=O)O)C(=O)N[C@@H](Cc1c[nH]c2ccccc12)C(=O)O`, the figures for the concentration for half-maximal inhibition (IC50) (in experiment [2]; against Neprilysin; in experiment [1]) were 3.1 µM, greater than 250 µM and 0.08 µM, respectively. Moreover, the Ratio IC50 in the experiment listed under Homo sapiens turned out to be 39.
